{"source": "ChEMBL document CHEMBL5465560", "about": "“Selectivity Literature for EUbOPEN Chemogenomic Library” (2024)", "key": {"[1]": {"target": "T1, Dual specificity mitogen-activated protein kinase kinase 4 (Homo sapiens) (UniProt P45985)", "T1 sequence (whole entry)": "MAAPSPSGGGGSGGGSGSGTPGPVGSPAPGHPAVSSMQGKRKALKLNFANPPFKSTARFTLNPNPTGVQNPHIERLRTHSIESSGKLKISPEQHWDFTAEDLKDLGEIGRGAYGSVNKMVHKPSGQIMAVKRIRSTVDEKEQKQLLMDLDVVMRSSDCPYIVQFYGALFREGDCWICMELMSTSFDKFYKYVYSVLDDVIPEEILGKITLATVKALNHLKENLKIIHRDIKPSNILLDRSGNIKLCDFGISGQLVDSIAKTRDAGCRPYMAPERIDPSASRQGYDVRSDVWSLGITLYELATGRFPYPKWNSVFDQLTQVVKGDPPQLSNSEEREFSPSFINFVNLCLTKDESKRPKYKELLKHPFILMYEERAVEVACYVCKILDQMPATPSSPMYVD", "experiment": "Selectivity interaction (KinomeScan (DiscoverX)) EUB0000229b MAP2K4", "conditions": "at 10 µM"}, "[2]": {"target": "Macrophage colony-stimulating factor 1 receptor (Homo sapiens) (UniProt P07333)", "sequence (P07333 whole entry)": "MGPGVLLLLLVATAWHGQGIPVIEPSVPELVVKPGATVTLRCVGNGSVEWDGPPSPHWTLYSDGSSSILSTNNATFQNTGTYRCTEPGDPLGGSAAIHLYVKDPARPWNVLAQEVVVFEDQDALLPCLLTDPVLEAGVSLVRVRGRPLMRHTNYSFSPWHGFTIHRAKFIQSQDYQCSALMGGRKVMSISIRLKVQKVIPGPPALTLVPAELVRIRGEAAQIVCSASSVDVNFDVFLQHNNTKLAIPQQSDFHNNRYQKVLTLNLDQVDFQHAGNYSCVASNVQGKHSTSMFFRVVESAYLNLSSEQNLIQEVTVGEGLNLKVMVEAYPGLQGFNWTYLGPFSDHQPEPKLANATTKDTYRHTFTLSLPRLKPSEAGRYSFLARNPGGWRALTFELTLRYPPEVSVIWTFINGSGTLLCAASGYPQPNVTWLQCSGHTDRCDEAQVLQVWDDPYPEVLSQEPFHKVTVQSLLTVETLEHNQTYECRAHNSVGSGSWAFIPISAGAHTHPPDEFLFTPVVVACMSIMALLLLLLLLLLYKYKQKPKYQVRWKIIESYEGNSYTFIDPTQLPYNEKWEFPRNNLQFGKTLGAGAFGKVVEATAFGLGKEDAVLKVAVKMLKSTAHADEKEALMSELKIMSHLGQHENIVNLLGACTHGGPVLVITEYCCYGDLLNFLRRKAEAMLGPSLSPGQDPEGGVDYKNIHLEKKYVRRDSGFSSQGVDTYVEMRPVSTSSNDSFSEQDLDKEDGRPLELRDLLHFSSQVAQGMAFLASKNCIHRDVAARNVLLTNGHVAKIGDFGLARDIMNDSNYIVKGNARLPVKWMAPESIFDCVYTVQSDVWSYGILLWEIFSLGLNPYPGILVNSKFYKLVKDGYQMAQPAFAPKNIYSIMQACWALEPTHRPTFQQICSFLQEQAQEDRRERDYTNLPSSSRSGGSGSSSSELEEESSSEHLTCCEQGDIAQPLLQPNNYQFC", "experiment": "Selectivity interaction (KinomeScan (DiscoverX)) EUB0000092b CSF1R", "conditions": "at 10 µM"}, "[3]": {"target": "Serine/threonine-protein kinase pim-2 (Homo sapiens, UniProt Q9P1W9)", "sequence (Q9P1W9 whole entry, looked up)": "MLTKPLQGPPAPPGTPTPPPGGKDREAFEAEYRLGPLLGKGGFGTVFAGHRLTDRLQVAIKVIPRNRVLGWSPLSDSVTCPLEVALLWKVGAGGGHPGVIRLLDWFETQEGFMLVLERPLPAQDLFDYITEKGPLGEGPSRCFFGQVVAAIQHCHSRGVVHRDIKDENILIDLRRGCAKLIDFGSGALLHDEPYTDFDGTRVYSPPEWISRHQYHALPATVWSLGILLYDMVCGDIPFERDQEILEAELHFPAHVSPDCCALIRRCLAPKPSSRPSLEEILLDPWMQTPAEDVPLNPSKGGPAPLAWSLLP", "experiment": "Selectivity interaction (ProQinase) EUB0000171b PIM2"}, "[4]": {"target": "Dual specificity protein kinase CLK2 (Homo sapiens, UniProt P49760)", "sequence (P49760 whole entry, looked up)": "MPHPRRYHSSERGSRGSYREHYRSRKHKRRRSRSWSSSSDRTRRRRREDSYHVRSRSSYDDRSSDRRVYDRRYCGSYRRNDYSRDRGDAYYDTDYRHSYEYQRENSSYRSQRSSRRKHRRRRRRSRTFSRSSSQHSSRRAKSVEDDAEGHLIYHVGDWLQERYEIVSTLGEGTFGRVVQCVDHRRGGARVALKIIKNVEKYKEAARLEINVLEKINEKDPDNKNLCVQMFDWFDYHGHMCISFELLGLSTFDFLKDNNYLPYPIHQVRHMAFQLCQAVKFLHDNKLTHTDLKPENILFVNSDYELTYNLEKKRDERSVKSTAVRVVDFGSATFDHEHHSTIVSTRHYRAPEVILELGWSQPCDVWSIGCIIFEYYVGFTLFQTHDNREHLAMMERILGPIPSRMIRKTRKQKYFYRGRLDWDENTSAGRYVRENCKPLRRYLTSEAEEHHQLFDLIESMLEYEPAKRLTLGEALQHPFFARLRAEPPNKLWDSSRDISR", "experiment": "Selectivity interaction (KinomeScan (DiscoverX)) EUB0000666a CLK2", "conditions": "at 10 µM"}, "[5]": {"target": "Casein kinase I isoform alpha (Homo sapiens, UniProt P48729)", "experiment": "Selectivity interaction (KinomeScan (DiscoverX)) EUB0000666a CSNK1A1", "conditions": "at 10 µM"}, "[6]": {"target": "Serine/threonine-protein kinase 24 (Homo sapiens) (UniProt Q9Y6E0)", "sequence (Q9Y6E0 whole entry, looked up)": "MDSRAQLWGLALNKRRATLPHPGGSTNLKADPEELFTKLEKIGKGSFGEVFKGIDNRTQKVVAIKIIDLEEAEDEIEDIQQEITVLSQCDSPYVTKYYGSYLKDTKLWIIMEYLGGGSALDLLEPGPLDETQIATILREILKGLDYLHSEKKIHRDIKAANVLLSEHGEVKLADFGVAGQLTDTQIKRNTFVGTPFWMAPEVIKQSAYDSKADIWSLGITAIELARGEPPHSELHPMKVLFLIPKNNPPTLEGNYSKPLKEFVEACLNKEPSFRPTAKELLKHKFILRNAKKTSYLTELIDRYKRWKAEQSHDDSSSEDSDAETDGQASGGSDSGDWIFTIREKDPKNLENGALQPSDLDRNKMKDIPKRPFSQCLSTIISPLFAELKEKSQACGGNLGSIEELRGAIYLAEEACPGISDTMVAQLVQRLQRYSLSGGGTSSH", "experiment": "Selectivity interaction (KinomeScan (DiscoverX)) EUB0000666a STK24", "conditions": "at 10 µM"}, "[7]": {"target": "Mitogen-activated protein kinase 9 (Homo sapiens, UniProt P45984)", "experiment": "Selectivity interaction (Kinase panel (enzymatic assay)) EUB0000595a MAPK9"}, "[8]": {"target": "Serine/threonine-protein kinase 38 (Homo sapiens) (UniProt Q15208)", "experiment": "Selectivity interaction (KinomeScan (DiscoverX)) EUB0000595a STK38", "conditions": "at 10 µM"}, "[9]": {"target": "Death-associated protein kinase 3 (Homo sapiens) (UniProt O43293)", "sequence (O43293 whole entry, looked up)": "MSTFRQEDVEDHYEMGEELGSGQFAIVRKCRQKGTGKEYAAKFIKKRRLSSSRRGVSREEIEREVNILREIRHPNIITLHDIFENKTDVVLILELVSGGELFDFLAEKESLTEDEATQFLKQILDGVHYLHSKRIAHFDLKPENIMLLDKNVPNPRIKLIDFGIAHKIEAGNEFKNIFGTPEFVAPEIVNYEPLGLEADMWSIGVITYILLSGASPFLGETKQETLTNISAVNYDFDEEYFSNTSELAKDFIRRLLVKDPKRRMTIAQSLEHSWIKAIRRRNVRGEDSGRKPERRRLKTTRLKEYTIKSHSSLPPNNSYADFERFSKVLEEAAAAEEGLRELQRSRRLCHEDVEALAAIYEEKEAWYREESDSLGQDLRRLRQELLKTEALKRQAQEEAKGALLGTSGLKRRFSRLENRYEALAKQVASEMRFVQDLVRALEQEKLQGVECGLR", "experiment": "Selectivity interaction (KinomeScan (DiscoverX)) EUB0000045b DAPK3"}, "[10]": {"target": "Tyrosine-protein kinase Srms (Homo sapiens) (UniProt Q9H3Y6)", "sequence (Q9H3Y6 whole entry)": "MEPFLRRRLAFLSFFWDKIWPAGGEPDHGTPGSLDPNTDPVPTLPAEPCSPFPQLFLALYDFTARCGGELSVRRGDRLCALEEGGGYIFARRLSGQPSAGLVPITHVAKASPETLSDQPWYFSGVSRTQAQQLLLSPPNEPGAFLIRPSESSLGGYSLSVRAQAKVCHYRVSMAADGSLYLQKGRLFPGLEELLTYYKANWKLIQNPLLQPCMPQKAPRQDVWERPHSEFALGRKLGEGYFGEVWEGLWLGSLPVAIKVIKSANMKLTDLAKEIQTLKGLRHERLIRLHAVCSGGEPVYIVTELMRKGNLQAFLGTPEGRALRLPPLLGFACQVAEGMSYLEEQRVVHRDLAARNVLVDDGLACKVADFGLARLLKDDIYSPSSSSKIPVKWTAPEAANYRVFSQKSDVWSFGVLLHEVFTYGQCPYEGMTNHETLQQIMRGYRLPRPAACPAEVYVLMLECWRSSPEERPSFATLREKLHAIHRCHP", "experiment": "Selectivity interaction (Ambit KINOMEscan and KiNATiv profiling in Jurkat cells) EUB0000090b SRMS", "format": "cell-based", "conditions": "at 1 µM"}, "[11]": {"target": "Serine/threonine-protein kinase WNK1 (Homo sapiens) (UniProt Q9H4A3)", "experiment": "Selectivity interaction (Ambit KINOMEscan and KiNATiv profiling in Jurkat cells) EUB0000090b WNK1", "format": "cell-based", "conditions": "at 1 µM"}, "[12]": {"target": "T2, Histone-lysine N-methyltransferase EHMT2 (Homo sapiens) (UniProt Q96KQ7)", "T2 sequence (whole entry)": "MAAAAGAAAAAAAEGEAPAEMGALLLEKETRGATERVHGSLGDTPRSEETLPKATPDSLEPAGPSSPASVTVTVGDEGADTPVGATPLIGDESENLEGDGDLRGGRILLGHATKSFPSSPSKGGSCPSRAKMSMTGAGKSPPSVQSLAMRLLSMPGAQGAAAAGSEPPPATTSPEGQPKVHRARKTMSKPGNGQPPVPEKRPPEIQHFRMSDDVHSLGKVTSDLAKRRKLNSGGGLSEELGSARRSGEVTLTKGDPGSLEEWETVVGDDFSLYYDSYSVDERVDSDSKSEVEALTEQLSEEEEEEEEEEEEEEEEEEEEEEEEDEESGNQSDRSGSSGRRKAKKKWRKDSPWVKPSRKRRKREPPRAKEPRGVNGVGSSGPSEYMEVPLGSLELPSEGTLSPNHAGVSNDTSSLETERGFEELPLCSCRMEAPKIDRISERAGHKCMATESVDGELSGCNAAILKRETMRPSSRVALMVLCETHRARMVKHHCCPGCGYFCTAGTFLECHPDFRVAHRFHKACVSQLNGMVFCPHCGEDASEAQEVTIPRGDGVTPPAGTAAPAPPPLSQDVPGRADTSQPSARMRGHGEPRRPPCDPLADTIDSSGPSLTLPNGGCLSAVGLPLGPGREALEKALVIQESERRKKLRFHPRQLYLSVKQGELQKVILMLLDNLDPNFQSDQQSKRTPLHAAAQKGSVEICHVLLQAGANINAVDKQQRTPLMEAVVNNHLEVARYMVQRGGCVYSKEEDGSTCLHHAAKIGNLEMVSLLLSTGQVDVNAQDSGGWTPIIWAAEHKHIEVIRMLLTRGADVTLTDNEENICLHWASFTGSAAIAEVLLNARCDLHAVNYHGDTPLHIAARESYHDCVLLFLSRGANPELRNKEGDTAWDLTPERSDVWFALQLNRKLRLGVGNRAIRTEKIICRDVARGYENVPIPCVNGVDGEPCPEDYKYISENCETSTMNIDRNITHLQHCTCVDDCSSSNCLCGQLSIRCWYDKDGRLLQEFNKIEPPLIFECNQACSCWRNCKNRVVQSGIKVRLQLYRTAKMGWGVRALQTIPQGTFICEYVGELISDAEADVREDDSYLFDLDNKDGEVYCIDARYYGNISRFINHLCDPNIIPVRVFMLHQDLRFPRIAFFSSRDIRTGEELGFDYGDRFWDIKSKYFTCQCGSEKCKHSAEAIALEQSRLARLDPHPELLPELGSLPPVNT", "conditions": "at 10 µM"}, "[13]": {"target": "Phosphatidylinositol 4-phosphate 3-kinase C2 domain-containing subunit beta (Homo sapiens) (UniProt O00750)", "sequence (O00750 whole entry, the tested form may be a part)": "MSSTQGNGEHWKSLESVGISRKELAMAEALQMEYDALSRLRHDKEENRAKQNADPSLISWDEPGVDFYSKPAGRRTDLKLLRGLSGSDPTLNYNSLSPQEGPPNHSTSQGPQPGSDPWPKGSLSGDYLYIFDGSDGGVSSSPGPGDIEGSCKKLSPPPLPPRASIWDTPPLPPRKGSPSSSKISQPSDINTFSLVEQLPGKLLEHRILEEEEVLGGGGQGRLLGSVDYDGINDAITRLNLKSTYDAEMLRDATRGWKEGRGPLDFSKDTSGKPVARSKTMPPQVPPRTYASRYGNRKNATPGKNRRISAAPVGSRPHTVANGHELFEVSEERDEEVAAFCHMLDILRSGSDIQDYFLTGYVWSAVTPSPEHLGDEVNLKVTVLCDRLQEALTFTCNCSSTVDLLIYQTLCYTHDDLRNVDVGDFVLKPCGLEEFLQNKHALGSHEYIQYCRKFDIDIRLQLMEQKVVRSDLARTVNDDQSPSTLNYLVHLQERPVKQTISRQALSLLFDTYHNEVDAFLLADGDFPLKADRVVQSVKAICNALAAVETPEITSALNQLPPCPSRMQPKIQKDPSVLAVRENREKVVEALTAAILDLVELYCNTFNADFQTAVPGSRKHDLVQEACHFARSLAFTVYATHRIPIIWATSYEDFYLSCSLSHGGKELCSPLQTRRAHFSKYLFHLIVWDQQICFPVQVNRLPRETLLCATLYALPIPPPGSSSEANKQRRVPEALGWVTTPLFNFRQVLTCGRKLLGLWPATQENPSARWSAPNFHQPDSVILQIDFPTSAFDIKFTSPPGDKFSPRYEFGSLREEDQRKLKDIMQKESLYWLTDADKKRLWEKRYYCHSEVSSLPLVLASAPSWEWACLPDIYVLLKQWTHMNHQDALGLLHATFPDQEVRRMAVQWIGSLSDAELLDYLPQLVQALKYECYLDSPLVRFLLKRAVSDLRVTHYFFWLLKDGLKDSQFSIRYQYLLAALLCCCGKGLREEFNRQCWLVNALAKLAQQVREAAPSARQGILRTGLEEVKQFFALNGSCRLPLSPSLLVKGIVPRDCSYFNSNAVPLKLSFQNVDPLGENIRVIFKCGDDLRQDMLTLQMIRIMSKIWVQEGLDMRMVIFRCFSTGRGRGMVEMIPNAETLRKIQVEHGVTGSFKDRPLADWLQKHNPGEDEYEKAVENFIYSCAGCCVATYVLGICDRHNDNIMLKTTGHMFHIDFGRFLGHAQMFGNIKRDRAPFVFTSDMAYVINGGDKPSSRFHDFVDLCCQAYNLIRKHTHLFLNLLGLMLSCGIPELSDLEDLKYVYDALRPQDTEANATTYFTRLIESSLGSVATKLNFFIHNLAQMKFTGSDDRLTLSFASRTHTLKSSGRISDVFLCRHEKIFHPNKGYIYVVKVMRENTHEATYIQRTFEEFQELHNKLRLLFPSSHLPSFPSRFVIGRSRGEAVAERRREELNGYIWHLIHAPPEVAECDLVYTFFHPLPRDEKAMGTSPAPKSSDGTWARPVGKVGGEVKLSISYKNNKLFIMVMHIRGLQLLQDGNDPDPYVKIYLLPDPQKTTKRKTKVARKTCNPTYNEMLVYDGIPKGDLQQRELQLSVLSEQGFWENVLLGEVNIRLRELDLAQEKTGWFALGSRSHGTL", "experiment": "Selectivity interaction (KinomeScan (DiscoverX)) EUB0001619a PIK3C2B", "conditions": "at 1 µM"}, "[14]": {"target": "T3, Phosphatidylinositol 5-phosphate 4-kinase type-2 beta (Homo sapiens) (UniProt P78356)", "T3 sequence (whole entry)": "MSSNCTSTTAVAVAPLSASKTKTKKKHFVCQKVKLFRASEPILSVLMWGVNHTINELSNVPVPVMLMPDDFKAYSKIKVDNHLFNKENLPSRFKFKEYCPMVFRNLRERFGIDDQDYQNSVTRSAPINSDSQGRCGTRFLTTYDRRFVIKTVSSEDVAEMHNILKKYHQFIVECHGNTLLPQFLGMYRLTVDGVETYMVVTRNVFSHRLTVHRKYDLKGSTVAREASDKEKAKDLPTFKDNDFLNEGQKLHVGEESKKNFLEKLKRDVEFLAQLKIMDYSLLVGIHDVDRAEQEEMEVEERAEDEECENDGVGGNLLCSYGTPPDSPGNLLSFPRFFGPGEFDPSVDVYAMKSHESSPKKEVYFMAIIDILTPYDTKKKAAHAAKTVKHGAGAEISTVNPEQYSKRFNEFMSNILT", "experiment": "Selectivity interaction (KinomeScan (DiscoverX)) EUB0001619a PIP4K2B", "conditions": "at 1 µM"}}, "data": [{"compound": "COc1cc(N(C)c2ccnc3ccc(C(F)(F)F)cc23)cc(OC)c1OC", "values": [{"measurement": "% binding", "setting": "[1]", "result": 100, "unit": "%"}]}, {"compound": "CCC(=O)N1CCN(c2ccc(-n3c(=O)ccc4cnc5ccc(-c6cnc7ccccc7c6)cc5c43)cc2C(F)(F)F)CC1", "values": [{"measurement": "% of control", "setting": "[2]", "result": 24, "unit": "%"}]}, {"compound": "C=CC(=O)Nc1cccc(C(=O)Nc2ccc(Nc3cc(-c4[nH]c(SC)nc4C)ccn3)cc2)c1", "values": [{"measurement": "% of control", "setting": "[3]; at 1 µM", "result": 101, "unit": "%"}, {"measurement": "% of control", "setting": "[3]; at 5 µM", "result": 69, "unit": "%"}]}, {"compound": "O=C(NOC[C@H](O)CO)c1ccc(F)c(F)c1Nc1ccc(I)cc1F", "values": [{"measurement": "% of control", "setting": "[4]", "result": 96, "unit": "%"}, {"measurement": "% of control", "setting": "[5]", "result": 100, "unit": "%"}, {"measurement": "% of control", "setting": "[6]", "result": 88, "unit": "%"}]}, {"compound": "COCC(=O)NC/C=C/c1ccc2ncnc(Nc3ccc(Oc4ccc(C)nc4)c(C)c3)c2c1", "note": "[CP-724714]", "values": [{"measurement": "IC50", "setting": "[7]", "result": "> 10", "unit": "µM"}, {"measurement": "% of control", "setting": "[8]", "result": 73, "unit": "%"}]}, {"compound": "C=CC(=O)Nc1cc(-n2c(=O)ccc3cnc4ccc(-c5ccc(NS(C)(=O)=O)cc5)cc4c32)ccc1C", "values": [{"measurement": "% of control", "setting": "[9]; at 1 µM", "result": 100, "unit": "%"}, {"measurement": "% of control", "setting": "[9]; at 10 µM", "result": 60, "unit": "%"}]}, {"compound": "CN(C)C/C=C/C(=O)Nc1ccc(C(=O)N2CCCC(Nc3ncc(Cl)c(-c4c[nH]c5ccccc45)n3)C2)cc1", "note": "(stereo unspecified)", "values": [{"measurement": "% of control", "setting": "[10]", "result": 99, "unit": "%"}, {"measurement": "% of control", "setting": "[11]", "result": 80, "unit": "%"}]}, {"compound": "CNCCN1CCC(c2cc(CN(C)C(=O)c3cccc(Oc4ccccc4)c3)ccn2)CC1", "values": [{"measurement": "% activity", "setting": "[12]", "result": "> 90", "unit": "%"}]}, {"compound": "N#Cc1cccc(-c2c[nH]c3ncnc(N4CCOCC4)c23)c1", "values": [{"measurement": "% of control", "setting": "[13]", "result": 100, "unit": "%"}, {"measurement": "% of control", "setting": "[14]", "result": 23, "unit": "%"}]}]}
